# In the SangsterLogP compilation:
# Test: method code SF-AS, from DOI: 10.1021/jm00244a011, PMID: 808606
row,logP,SMILES
1,0.49,CCOC(=O)CN1C(=O)C=CC1=O
2,0.41,CCOC(=O)CCN1C(=O)C=CC1=O
3,0.04,O=C(O)CCN1C(=O)C=CC1=O
4,0.6,O=C(O)CCCCN1C(=O)C=CC1=O
5,-0.14,O=C(O)CN1C(=O)C=CC1=O
6,0.4,O=C(O)CCCN1C(=O)C=CC1=O
7,1.99,O=C(O)CCCCCCCN1C(=O)C=CC1=O
8,1.15,O=C(O)CCCCCN1C(=O)C=CC1=O
9,1.5,CCOC(=O)CCCCCN1C(=O)C=CC1=O
10,0.67,CCOC(=O)CCCN1C(=O)C=CC1=O
